According to patent US7517889B2, “2,6-substituted-4-monosubstitutedamino-pyrimidine as prostaglandin D2 receptor antagonists” (Aventis Pharmaceuticals, Inc., priority 2004, dated 2009):
Where a name gives a salt, the structure may show the parent alone.

target: T1, DP receptor (Homo sapiens, UniProt Q13258); assay: SPA cAMP assay in human LS174 T cells (human DP functional assay); type: cell-based; details: inhibition of PGD2 (15 nM final) stimulated cAMP, LS174T cells expressing endogenous DP receptor
T1 construct: the human cell line LS174T, which expresses the endogenous DP receptor; endogenous in cells; host or cells: LS174T human cell line
T1 sequence (Q13258 1-359): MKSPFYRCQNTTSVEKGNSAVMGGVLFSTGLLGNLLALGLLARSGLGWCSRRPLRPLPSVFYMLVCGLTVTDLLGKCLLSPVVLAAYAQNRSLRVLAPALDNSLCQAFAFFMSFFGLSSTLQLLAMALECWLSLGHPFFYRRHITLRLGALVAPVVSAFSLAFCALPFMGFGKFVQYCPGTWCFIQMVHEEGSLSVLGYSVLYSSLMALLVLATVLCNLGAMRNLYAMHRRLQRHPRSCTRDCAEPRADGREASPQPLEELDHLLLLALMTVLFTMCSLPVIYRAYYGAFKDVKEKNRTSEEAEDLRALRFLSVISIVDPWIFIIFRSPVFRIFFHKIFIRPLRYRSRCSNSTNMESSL
Procedure: The inhibitory effects of the compounds according to the invention are assessed in a human DP functional assay. A cAMP assay is employed using the human cell line LS174T, which expresses the endogenous DP receptor.
Protocol for SPA cAMP Assay in Human LS174 T Cells
• 1) Add equal volumes of tracer, antiserum and SPA anti-rabbit reagent to a bottle, ensuring that a sufficient volume of this mixture is prepared for the desired number of wells (150 μL/well). • 2) Mix thoroughly. • 3) This immunoreagent solution should be freshly prepared before each assay and not re-used.
Add 50 μL of […] IBMX into 100 mL PBS to make a final concentration of 100 μM and sonicate at 30° C. for 20 minutes.
Before each assay, it is freshly prepared. Add 3 μL of 10 mM stock solution to 20 mL DMSO, mix it thoroughly, and transfer 10 mL to 40 mL PBS.
Compound dilution is carried out in Biomex 2000 (Beckman) using Method 1_cAMP DP 11 points.
5 μL of each compound from the 10 mM stock compound plates is transferred to the wells of a 96-well plate respectively as below.
Fill the plate with 45 μL of DMSO except column 7 is filled with 28 μL DMSO. Pipette column 1 thoroughly, and transfer 12 μL into column 7 parallel. Perform 1:10 serial dilution from column 1 to column 6 and from column 7 to column 11 by transfer 5 μL to 45 μL DMSO to make following concentrations:
Fill a new 96-well plate with 247.5 μL of compound dilution buffer. Transfer 2.5 μL of serially diluted compounds from above plate to the new plate (1:100 dilution) as following:
Cell Growth • 1. […] Remove growth medium from cells. Cells in T165 flask are washed twice with 4 mL Trypsin followed by incubation at 37° C. and 5% CO2 for 3 minutes. • 4. Add 10 mL of medium and pipette thoroughly to separate the cells and count the cells. • 5. […] Assay Procedure Day 1 • Seed 45,000 cells/well in 200 μL medium in 96-well plates. Incubate the cell plate at 37° C., 5% CO2 and 95% humidity overnight. Day 2 • 1. Perform compound dilution. • 2. Prepare assay buffer, lysis buffer 1 & 2, PGD2 and standard. • 3. Aspirate media from the cells and add 100 μL of compound solution using Zymark Sciclone-ALH/FD protocol cAMP DP. • 4. Incubate the cells at 37° C., 5% CO2 and 95% humidity for 15 minutes. • 5. […] Aspirate media from the cells and add 50 μL of lysis buffer 1 using Zymark protocol cAMP DP lysis, and incubate at room temperature with shaking for 30 minutes. • 7. Add 150 μL immunoreagent to all wells (a total volume of 200 μL/well). • 8. Seal the plates and shake for 2 minutes, put into the chamber of the Wallac microtitre plate μ scintillation counter for 16 hours. […] Data Processing Set up standard curve of cAMP versus CPM.
The cAMP concentrations (pmol/mL) of unknown samples are calculated from a standard curve of cAMP versus CPM. % inhibition is calculated using the following formula: […]

SMILES | IC50
COc1nc(NCCc2ccc(C(F)(F)F)cc2F)cc(-c2cccc(CCNC(C)=O)c2)n1 [Example 65, N-[2-(3-{6-[2-(2-Fluoro-4-trifluoromethyl-phenyl)-ethylamino]-2-methoxy-pyrimidin-4-yl}-phenyl)-ethyl]-acetamide hydrochloride] | 37 nM
COc1nc(NCCc2ccc(Cl)cc2Cl)cc(N2CCC(C(=O)O)CC2)n1 [Example 97, 1-{6-[2-(2,4-Dichloro-phenyl)-ethylamino]-2-methoxy-pyrimidin-4-yl}-piperidine-4-carboxylic acid] | 7 nM
COc1ccc(CCNc2cc(-c3ccc(F)c(/C=N\O)c3)nc(OC)n2)cc1 [Example 26, 2-Fluoro-5-{2-methoxy-6-[2-(4-methoxy-phenyl)-ethylamino]-pyrimidin-4-yl}-benzaldehyde oxime] | 4.5 nM
COc1ccc(CCNc2cc(-c3ccc[n+]([O-])c3)nc(OC)n2)cc1 [Example 21(a), [2-Methoxy-6-(1-oxy-pyridin-3-yl)-pyrimidin-4-yl]-[2-(4-methoxy-phenyl)-ethyl]-amine] | 149 nM
COc1ccc(CCNc2cc(-c3ccc(N(C)C)cc3)nc(OC)n2)cc1 [Example 10(I)] | 42 nM
CNC(=O)c1ccc(-c2cc(NCCc3ccc(OC)cc3)nc(OC)n2)s1 [Example 62, 5-{2-Methoxy-6-[2-(4-methoxy-phenyl)-ethylamino]-pyrimidin-4-yl}-thiophene-2-carboxylic acid methylamide trifluoroacetate] | 0.3 nM
COc1nc(NCCc2ccc(Cl)cc2Cl)cc(-c2cccc(C3(C(=O)NS(C)(=O)=O)CCOCC3)c2)n1 [Example 80(b), N-[4-(3-{6-[2-(2,4-Dichloro-phenyl)-ethylamino]-2-methoxy-pyrimidin-4-yl}-phenyl)-tetrahydro-pyran-4-carbonyl]-methanesulfonamide] | < 1 nM
COc1ccc(CCNc2cc(-c3cccc(O)c3)nc(OC)n2)cc1 [Example 15(a), 3-{2-Methoxy-6-[2-(4-methoxy-phenyl)-ethylamino]-pyrimidin-4-yl}-phenol hydrochloride] | 0.1 nM
COc1nc(NCCc2ccc(Cl)cc2Cl)cc(-c2ccc(C(=O)O)s2)n1 [Example 87, 5-{6-[2-(2,4-Dichloro-phenyl)-ethylamino]-2-methoxy-pyrimidin-4-yl}-thiophene-2-carboxylic acid] | 0.16 nM
COc1nc(NCCc2c(F)cccc2Cl)cc(-c2cccc(CO)c2)n1 [Example 9(d), (3-{6-[2-(2-chloro-6-fluoro-phenyl)-ethylamino]-2-methoxy-pyrimidin-4-yl}-phenyl)-methanol] | 2.4 nM
COc1nc(NCCc2ccc3c(c2)OC(F)(F)O3)cc(-c2cccnc2)n1 [Example 46(b), [2-(2,2-difluoro-benzo[1,3]dioxol-5-yl)-ethyl]-(2-methoxy-6-pyridin-3-yl-pyrimidin-4-yl)-amine] | 212 nM
COc1ccc(CCNc2cc(-c3ccc4[nH]c(=O)oc4c3)nc(OC)n2)cc1 [Example 14(c), 6-{2-Methoxy-6-[2-(4-methoxy-phenyl)-ethylamino]-pyrimidin-4-yl}-3H-benzooxazol-2-one] | 7 nM
COc1nc(NCCc2ccc(OC)c(OC)c2)cc(-c2cccc(C(=O)NCCN3CCCC3)c2)n1 [Example 25(b), 3-{6-[2-(3,4-Dimethoxy-phenyl)-ethylamino]-2-methoxy-pyrimidin-4-yl}-N-(2-pyrrolidin-1-yl-ethyl)-benzamide] | 30 nM
CCS(=O)(=O)NC(=O)C(F)(F)c1cccc(-c2cc(NCCc3ccc(Cl)cc3Cl)nc(OC)n2)c1 [Example 81(b), Ethanesulfonic acid [2-(3-{6-[2-(2,4-dichloro-phenyl)-ethylamino]-2-methoxy-pyrimidin-4-yl}-phenyl)-2,2-difluoro-acetyl]-amide] | 0.1 nM
COc1ccc(CCNc2cc(-c3cccc(-c4cc(C)no4)c3)nc(OC)n2)cc1 [Example 38, {2-Methoxy-6-[3-(3-methyl-isoxazol-5-yl)-phenyl]-pyrimidin-4-yl}-[2-(4-methoxy-phenyl)-ethyl]-amine] | 6 nM
COc1nc(NCCc2c(F)cccc2Cl)cc(-c2ccc(=O)n(CC(=O)O)c2)n1 [Example 23(c), (5-{6-[2-(2-Chloro-6-fluoro-phenyl)-ethylamino]-2-methoxy-pyrimidin-4-yl}-2-oxo-2H-pyridin-1-yl)-acetic acid] | 0.3 nM
CCOc1nc(NCCc2ccc(OC)c(OC)c2)cc(-c2ccc(OC)c(OC)c2)n1 [Example 17(b), [6-(3,4-Dimethoxy-phenyl)-2-ethoxy-pyrimidin-4-yl]-[2-(3,4-dimethoxy-phenyl)-ethyl]-amine] | 655 nM
COc1ccc(CCNc2cc(-c3cnco3)nc(OC)n2)cc1 [Example 45, (2-Methoxy-6-oxazol-5-yl-pyrimidin-4-yl)-[2-(4-methoxy-phenyl)-ethyl]-amine] | 7.8 nM
COc1ccc(CCNc2cc(-c3cccc(-c4nnc(C)[nH]4)c3)nc(OC)n2)cc1 [Example 37, {2-Methoxy-6-[3-(5-methyl-2H-[1,2,4]triazol-3-yl)-phenyl]-pyrimidin-4-yl}-[2-(4-methoxy-phenyl)-ethyl]-amine] | 3.7 nM
COc1ccc(CCNc2cc(-c3ccc(C=O)s3)nc(OC)n2)cc1 [Example 8(b), 5-{2-methoxy-6-[2-(4-methoxy-phenyl)-ethylamino]-pyrimidin-4-yl}-thiophene-2-carbaldehyde] | 0.6 nM
COc1ccc(CCNc2cc(-c3ccc(C(N)=O)cc3)nc(OC)n2)cc1 [Example 10(e), 4-{2-Methoxy-6-[2-(4-methoxy-phenyl)-ethylamino]-pyrimidin-4-yl}-benzamide] | 2.3 nM
COc1ccc(CCNc2cc(-c3cccc(C(C)=O)c3)nc(OC)n2)cc1 [Example 35(h), 1-(3-{2-Methoxy-6-[2-(4-methoxy-phenyl)-ethylamino]-pyrimidin-4-yl}-phenyl)-ethanone] | 5 nM
COc1ccc(CCNc2cc(-c3ccc(F)c(CN)c3)nc(OC)n2)cc1 [Example 27, [6-(3-Aminomethyl-4-fluoro-phenyl)-2-methoxy-pyrimidin-4-yl]-[2-(4-methoxy-phenyl)-ethyl]-amine hydrochloride] | 41 nM
COc1nc(NCCc2ccc(Cl)cc2Cl)cc(-c2cccc(C(C)(C)C(=O)O)c2)n1 [Example 15(d), 2-(3-{6-[2-(2,4-Dichloro-phenyl)-ethylamino]-2-methoxy-pyrimidin-4-yl}-phenyl)-2-methyl-propionic acid hydrochloride] | 0.3 nM
CCOC(=O)c1cc(-c2cc(NCCc3ccc(OC)cc3)nc(OC)n2)ccc1Cl [Example 35(z), 2-Chloro-5-{2-methoxy-6-[2-(4-methoxy-phenyl)-ethylamino]-pyrimidin-4-yl}-benzoic acid ethyl ester] | 32 nM
CCc1nc(NCCc2ccc(OC)cc2)cc(-c2cccc(OC)c2)n1 [Example 18, [2-Ethyl-6-(3-methoxy-phenyl)-pyrimidin-4-yl]-[2-(4-methoxy-phenyl)-ethyl]-amine] | 219 nM
COc1nc(NCCc2ccc(OC(F)(F)F)cc2)cc(-c2cccc(N)c2)n1 [Example 5, [6-(3-amino-phenyl)-2-methoxy-pyrimidin-4-yl]-[2-(4-trifluoromethoxy-phenyl)-ethyl]-amine] | 9.6 nM
CCOC(=O)c1cccc(-c2cc(NCCc3ccc(Cl)cc3Cl)nc(OC)n2)c1 [Example 77, 3-{6-[2-(2,4-Dichloro-phenyl)-ethylamino]-2-methoxy-pyrimidin-4-yl}-benzoic acid ethyl ester] | 149 nM
